Assay results taken from US20120282187A1 (BOEHRINGER INGELHEIM INTERNATIONAL GMBH, priority 2008, published 2012).
Several values for one entry are separate records, joined by “and”; a condition that tells them apart may be missing. Identical values can stand only once. Entries after “also recorded” stand apart in the source; their conditions may differ. Like-named read-outs stand apart in the source and are kept apart here.

How the values were obtained:
[1] = tested on: activated partial thromboplastin time (aPTT), ecarin clotting time, and thrombin clotting time; assay: Clotting time tests
Text: The anticoagulant effects parallel plasma concentrations.

[2] = tested on: patients with atrial fibrillation
Experimental: The PETRO-Ex study was conducted in 52 centers in the United States, Denmark, The Netherlands, and Sweden.
PETRO-Ex began while the PETRO study was ongoing and investigators were initially kept blinded to patient treatment group until PETRO was completed. Unblinding investigators to patient treatment was possible thereafter.
Data were summarized descriptively; no hypothesis was to be tested. Events were analyzed on the basis of the treatment at onset. Incidences were reported as of patients with events as well as normalized to 100 patient-years on the respective treatment.
Patients who were down titrated to 50 mg q.d. based on a glomerular filtration rate≦50 mL/min during PETRO were excluded from the long-term trial; patients down-titrated in other dose levels remained on the q.d. treatment at that dose.
The total exposure reflects both trials, PETRO and PETRO-Ex, together.

[3] = tested on: patients with chronic atrial fibrillation; assay: PETRO phase 2 12-week dose finding study; format: in vivo, human; conditions: in vivo
Text: Primary endpoints were bleeding events and changes in D-dimer. […] Minor bleeding was dose related.

[4] = Clinical pharmacokinetics and pharmacodynamics of dabigatran etexilate; format: in vivo
Text: Ezekowitz M D, et al., Dabigatran with or without concomitant aspirin compared with warfarin alone in patients with nonvalvular atrial fibrillation (PETRO study), Am. […] The PETRO study is described below.
As noted above, management of warfarin therapy is complex, and failure to adequately monitor patients is associated with risk. […] It also interacts with many common foods, drugs and alcohol which alter its therapeutic effect, putting patients at risk of either a bleeding or thrombotic event. Therefore, warfarin therapy requires careful individualized dosing and frequent monitoring. The significant limitations of VKAs have created a need for an oral anticoagulant with a rapid onset of action, minimal drug interactions, and a predictable anticoagulation effect that needs no monitoring.
Peak levels are seen within 2-3 hours of oral administration. […] Steady-state is reached within 2-3 days with a twice daily regimen. […] The remainder undergoes conjugation with glucuronic acid to form acylglucuronides which are excreted primarily in the bile.

[5] = tested on: patients with atrial fibrillation at risk of stroke; assay: RELY clinical trial (Randomized Evaluation of Long-term Anticoagulation Therapy); format: in vivo; conditions: for Stroke, systemic embolism, pulmonary embolism, myocardial infarction death or major bleed, Rate: net benefit
Text: The primary study outcome was stroke or systemic embolism. The primary safety outcome was major hemorrhage. Secondary outcomes were stroke, systemic embolism and death. […] All other bleeding was considered minor.
All analyses were based on intention-to-treat.

[6] = individual patients with LFT abnormalities, # = with concomitant Bilirubin elevation to >2xULN

SMILES: [H]/N=C(/N)c1ccc(NCc2nc3cc(C(=O)N(CCC(=O)O)c4ccccn4)ccc3n2C)cc1 [Dabigatran]
- prolongation of activated partial thromboplastin time (aPTT), ecarin clotting time, and thrombin clotting time [1]: dose dependent prolongation
- fatal major bleeds, number ([2]; 150 mg b.i.d.): 4
- fatal major bleeds, number ([2]; 300 mg q.d.): 1
- fatal bleeding events ([2]; all doses): 0.5 % per year
- fatal major bleeds, number ([2]; all doses): five
- intracranial bleed rate ([2]; all doses): 0.4 % per year
- Final Outcome/Comment ([2]; individual patients with LFT abnormalities): Fatal; also recorded: Recovered
- LFT abnormality ALT/ULN [2, 6]: >5x (4×) and >5x^# (2×) and >3x (5×) and >3x^#
- LFT abnormality AST/ULN [2, 6]: >5x^# (4×) and >5x (4×) and >3x (5×)
- LFT abnormality resolved after stopping of dabigatran, number of cases ([2]; of the 16 on treatment cases): 5
- LFT abnormality resolved with continuation of dabigatran, number of cases ([2]; of the 16 on treatment cases): 10
- change in D-dimer levels [3]: comparable to warfarin
- plasma half life ([4]; after multiple doses): 12 to 17 h
- time to steady-state ([4]; human, in vivo): 2 to 3 days
- time to peak levels ([4]; oral administration): 2 to 3 h
- Myocardial Infarction, Rate ([5]; 110 mg b.i.d.): 0.73 /100 Person Years
- Rates of hemorrhagic stroke ([5]; 110 mg b.i.d.): 0.12 % per year
- Stroke, Ischemic or Unspecified, Rate ([5]; 110 mg b.i.d.): 1.35 /100 Person Years
- net benefit-risk outcome (major vascular events, major bleeding and death) rate ([5]; 110 mg b.i.d.): 7.37 % per year
- Myocardial Infarction, Rate ([5]; 150 mg b.i.d.): 0.74 /100 Person Years
- Rates of hemorrhagic stroke ([5]; 150 mg b.i.d.): 0.10 % per year
- net benefit-risk outcome (major vascular events, major bleeding and death) rate ([5]; 150 mg b.i.d.): 7.22 % per year
- rates of stroke and systemic embolism compared to warfarin ([5]; 150 mg b.i.d.): lower rates
- First Hospitalization, RR ([5]; Dabigatran 110 mg vs. Warfarin): 0.92
- Myocardial Infarction, RR ([5]; Dabigatran 110 mg vs. Warfarin): 1.35
- Non-disabling Stroke Modified Rankin 0-2, RR ([5]; Dabigatran 110 mg vs. Warfarin): 0.87
- Pulmonary embolism, RR ([5]; Dabigatran 110 mg vs. Warfarin): 1.26
- Stroke or systemic embolism, RR ([5]; Dabigatran 110 mg vs. Warfarin): 0.91
- Stroke, Hemorrhagic, RR ([5]; Dabigatran 110 mg vs. Warfarin): 0.31
- Stroke, Ischemic or Unspecified, RR ([5]; Dabigatran 110 mg vs. Warfarin): 1.12
- Stroke, RR ([5]; Dabigatran 110 mg vs. Warfarin): 0.92
- Stroke, Ischemic or Unspecified, RR ([5]; Dabigatran 150 mg vs. 110 mg): 0.68
- Stroke, RR ([5]; Dabigatran 150 mg vs. 110 mg): 0.70
- First Hospitalization, RR ([5]; Dabigatran 150 mg vs. Warfarin): 0.97
- Myocardial Infarction, RR ([5]; Dabigatran 150 mg vs. Warfarin): 1.38
- Non-disabling Stroke Modified Rankin 0-2, RR ([5]; Dabigatran 150 mg vs. Warfarin): 0.62
- Pulmonary embolism, RR ([5]; Dabigatran 150 mg vs. Warfarin): 1.61
- Stroke or systemic embolism, RR ([5]; Dabigatran 150 mg vs. Warfarin): 0.66
- Stroke, Hemorrhagic, RR ([5]; Dabigatran 150 mg vs. Warfarin): 0.26
- Stroke, Ischemic or Unspecified, RR ([5]; Dabigatran 150 mg vs. Warfarin): 0.76
- Stroke, RR ([5]; Dabigatran 150 mg vs. Warfarin): 0.64
- primary outcome compared to warfarin ([5]; both doses (110 mg and 150 mg b.i.d.)): non-inferior to warfarin
- Stroke, systemic embolism, pulmonary embolism, myocardial infarction death or major bleed, Rate ([5]; 110 mg b.i.d.): 7.37 /100 Person Years
- Stroke, systemic embolism, pulmonary embolism, myocardial infarction death or major bleed, Rate ([5]; 150 mg b.i.d.): 7.22 /100 Person Years
